Tests used:
SK1 = target: T1, SK1 (Homo sapiens, UniProt Q9NYA1); test: SK1 activity by radiolabelling in PC-3 cells; format: cell-based; conditions: PC-3 cells treated for 48 h
T1 construct: endogenous in cells; host or cells: PC-3 cells (obtained from DSMZ)
Description: (D) PC-3 cells were treated for 48 h as indicated in figure and SK1 activity was measured by radiolabelling. Columns, points, percentage relative to the control. Data is expressed as Mean±SE (n=3). * p<0.05 versus control, ** p<0.05 versus free drug treatment (DTX+FTY). (E) Cytotoxicity of free drugs was assessed using the MTT assay (48 hr: dark shading; 72 hr: light shading; 96 hr: no shading); the final two columns showing sequential administration of docetaxel on day 1 (D1) followed by FTY720 on day 2 (D2), or administration of FTY720 on day 1 (D1) followed by docetaxel on day 2 (D2).
SK1 assay was performed using radiolabelling as previously described (Alshaker et al (2014), above, plus: Alshaker, H. et al. Sphingosine kinase 1 contributes to leptin-induced STAT3 phosphorylation through IL-6/gp130 transactivation in oestrogen receptor-negative breast cancer. Breast Cancer Res Treat 149, 59-67, doi:10.1007/s10549-014-3228-8 (2015); and Pchejetski, D. et al. The involvement of sphingosine kinase 1 in LPS-induced Toll-like receptor 4-mediated accumulation of HIF-1alpha protein, activation of ASK1 and production of the pro-inflammatory cytokine IL-6. Immunol Cell Biol 89, 268-274, doi:10.1038/icb.2010.91 (2011)), in conditions favouring SK1 activity and inhibiting SK2 activity.

[1] = tested on: MDA-MB-231 metastatic triple negative breast cancer cell; test: MDA-MB-231 breast tumour xenograft, free agents, tumour weight; format: in vivo, Balb/c nude mice; conditions: 5 mg/kg single agent, breast tumours
Description: (§1) Tumour weight at week 5. Columns, mean of three experiments performed in triplicate. Bars, SE. * p<0.05 versus control.
(§2) Mice and tumours were weighed.
(§3) Data are presented as the mean values of at least three independent experiments normalised to control±standard error of the mean (SE) calculated using OriginPro. Statistical significance between two groups was conducted by unpaired Student's t test. p value of <0.05 is considered statistically significant.

[2] = tested on: PC-3 metastatic prostate cancer cells; test: PC-3 prostate tumour xenograft, free agents, tumour weight; format: in vivo, Balb/c nude mice; conditions: 5 mg/kg single agent, prostate tumours
Description: as §1, §2, §3

[3] = in vivo; cited from earlier work
[4] = Toxicity in PC-3 tumour-bearing NSG mice (body weight, liver weight, WCC); format: in vivo; conditions: after 2 weeks of administration
Description: At Day 30 mice were sacrificed and liver weight measurements were performed. Liver weight was normalised to control group (healthy group no treatment). *: p<0.05 vs. control group (ANOVA). Data is expressed as Mean±SE (n=7).

T1 sequence (Q9NYA1 whole entry): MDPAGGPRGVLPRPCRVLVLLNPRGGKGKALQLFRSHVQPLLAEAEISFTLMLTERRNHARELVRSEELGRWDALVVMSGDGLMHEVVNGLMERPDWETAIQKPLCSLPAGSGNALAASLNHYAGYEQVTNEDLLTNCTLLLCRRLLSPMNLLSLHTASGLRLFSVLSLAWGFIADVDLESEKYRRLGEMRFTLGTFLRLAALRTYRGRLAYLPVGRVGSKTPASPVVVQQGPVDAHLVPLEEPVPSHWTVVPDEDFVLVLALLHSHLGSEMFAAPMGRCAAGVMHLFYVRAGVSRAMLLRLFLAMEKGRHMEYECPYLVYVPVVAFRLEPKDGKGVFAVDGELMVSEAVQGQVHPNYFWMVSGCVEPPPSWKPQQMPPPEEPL

CC(=O)O[C@@]12CO[C@@H]1C[C@H](O)[C@@]1(C)C(=O)[C@H](O)C3=C(C)[C@@H](OC(=O)[C@H](O)[C@@H](NC(=O)OC(C)(C)C)c4ccccc4)C[C@@](O)([C@@H](OC(=O)c4ccccc4)[C@H]21)C3(C)C [docetaxel]
SK1 activity (SK1): insignificant increase
tumour weight reduction, individual drug treatment [1]: did not reduce the tumour weight significantly
tumour weight reduction, individual drug treatment [2]: did not reduce the tumour weight significantly
circulation half-life [3]: ~17 h

Oc1ccc(Nc2nc(-c3ccc(Cl)cc3)cs2)cc1 [SK1-II]
tumour weight reduction, individual drug treatment [2]: did not reduce the tumour weight significantly

CCCCCCCCc1ccc(CCC(N)(CO)CO)cc1 [FTY720, fingolimod]
white cell count [4]: significantly reduced white cell count
half-life [3]: 140 to 220 h

From patent publication US20200121807A1, “Anti-Cancer Agents” (UEA ENTERPRISES LIMITED, priority 2016, published 2020)
